Test results published in US7842488B2, “Polynucleotides encoding a human 3-phosphoinositide- dependent protein kinase” (Medical Research Council, priority 1997, dated 2010).

What was measured:
PDK1 [1] = test: PDK1 assay: activation of GST-PKBα by purified PDK1 with phospholipid vesicles; assay type: biochemical, rabbit; details: for activation of PDK1 (in words) / fold-activation of GST-PKBα (PDK1 activity): lipid 10 μM in vesicles of 100 μM PtdCho, 100 μM PtdSer, 30 min at 30° C.; for order of level of activation of the 3-phosphoinositide-dependent kinase (most effective first): rabbit skeletal muscle PDK1, FIG. 6; for activation and phosphorylation of GST-PKBα by PDK1 in the presence of Triton X-100: 0.5% (by vol) in the assay
Experimental: (§1) Assay of PDK1. The assay was carried out in two stages; in the first, GST-PKBα was incubated with PDK1 in the presence of MgATP and phospholipid vesicles to permit activation of GST-PKBα.
(§2) After 10 min at 30° C., the reactions were terminated by spotting the reaction mixture on to p81 phosphocellulose paper. The papers were washed in phosphoric acid and analysed as described previously. […] The basal GST-PKBα activity is the activity measured in the absence of PDK1.

PDK1 [2] = test: Phosphorylation of GST-PKBα by PDK1 with [γ32P]ATP; assay type: biochemical, rabbit; details: lipid 10 μM in PtdCho/PtdSer vesicles
Experimental: Solutions were stored at 4° C. at concentrations 10-fold higher than those required in the assay and used within 2-4 days.
(§3) Phosphorylation of GST-PKB ? by PDK1. The incubations were identical to the Stage 1 described above except that [γ^32P] ATP (200-400 cpm/pmol) was used instead of unlabelled ATP. The reactions were terminated by making the solution 1% (by mass) in SDS. […] The Coomassie blue-staining bands corresponding to GST-PKBα were excised and the ^32P-radioactivity associated with each band was quantified.

GST-PKBα = target: T1, GST-PKBα (Homo sapiens, UniProt P31749); test: Activity of PDK1 preparations towards GST-PKBα; assay type: biochemical; details: for phosphorylation of GST-PKBα: PtdIns(3,4,5)P3 lipids, high enzyme concentration; for specific activity towards GST-PKBα: in the presence of PtdIns(3,4,5)P3; for fold increase in GST-PKBα activity: in the presence of PtdIns(3,4,5)P3 vesicles
T1 construct: generate a full length cDNA encoding the PKBα gene; made in house; host or cells: human embryonic kidney 293 cells (pEBG2T), serum starved
Experimental: as §1, §2, §3

T1 sequence (P31749 whole entry): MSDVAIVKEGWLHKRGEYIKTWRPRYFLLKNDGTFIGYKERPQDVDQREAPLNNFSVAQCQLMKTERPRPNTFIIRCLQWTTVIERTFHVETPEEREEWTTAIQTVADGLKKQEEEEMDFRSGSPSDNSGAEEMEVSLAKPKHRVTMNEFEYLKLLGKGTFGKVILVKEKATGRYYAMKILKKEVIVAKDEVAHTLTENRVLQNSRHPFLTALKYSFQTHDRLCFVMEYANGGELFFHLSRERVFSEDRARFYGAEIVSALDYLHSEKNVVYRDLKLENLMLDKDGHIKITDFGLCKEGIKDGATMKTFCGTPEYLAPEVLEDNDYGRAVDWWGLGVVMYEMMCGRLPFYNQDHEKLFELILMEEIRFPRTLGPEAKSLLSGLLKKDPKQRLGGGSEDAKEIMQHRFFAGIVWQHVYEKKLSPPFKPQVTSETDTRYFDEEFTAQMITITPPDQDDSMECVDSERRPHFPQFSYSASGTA

Molecule: O=P(O)(O)O[C@H]1[C@H](O)[C@@H](OP(=O)(O)O)[C@H](OP(=O)(O)O)[C@@H](OP(=O)(O)O)[C@H]1O [IP4, inositol 1,3,4,5-tetrakisphosphate]
- activation of PDK1 (in words) (PDK1 [1]): no significant activation
- activation of PDK1 (in words) (PDK1 [1]; listed as Ins(1,3,4,5)P4): did not activate PDK1
- activation of PDK1 (in words) (PDK1 [1]; listed as inositol 1,3,4,5-tetrakisphosphate): did not activate PDK1 at all
- phosphorylation of GST-PKBα by PDK1 (in words) (PDK1 [2]): did not activate PDK1 or induce the phosphorylation

Molecule: PtdIns 4P [Lipid 10]
- activation of PDK1 (in words) (PDK1 [1]): no significant activation
- activation of PDK1 (in words) (PDK1 [1]; listed as PtdIns(4)P): did not activate PDK1 at all
- activation of PDK1 (in words) (PDK1 [1]; listed as lipid 10): did not activate PDK1
- phosphorylation of GST-PKBα by PDK1 (in words) (PDK1 [2]): did not activate PDK1 or induce the phosphorylation

Molecule: GST-PDK1: residues 52-556 of human PDK1 expressed in 293 cells as fusion with glutathione S-transferase
- phosphorylation of GST-PKBα (GST-PKBα): 0.75 mol phosphate per mol protein
- specific activity towards GST-PKBα (GST-PKBα): 78 000 U/mg
- fold increase in GST-PKBα activity (GST-PKBα): 35 fold

Molecule: protein tyrosine phosphatase 1B: protein tyrosine phosphatase 1B
- PDK1 activity after treatment with phosphatase (PDK1 [1]; high concentrations of phosphatase): no effect on activity

Molecule: CCCCCCCCCCCCCCCC(=O)OC[C@H](COP(=O)(O)OC1C(O)C(OP(=O)(O)O)C(O)C(OP(=O)(O)O)C1O)OC(=O)CCCCCCCCCCCCCCC (some centres unmarked) [Lipid 8, sn-1,2 di-palmitoyl PtdIns(3,5)P2]
- activation of PDK1 (in words) (PDK1 [1]): no significant activation
- activation of PDK1 (in words) (PDK1 [1]; listed as PtdIns(3,5)P2): did not activate PDK1 at all
- activation of PDK1 (in words) (PDK1 [1]; listed as lipid 8): did not activate PDK1
- phosphorylation of GST-PKBα by PDK1 (in words) (PDK1 [2]): did not activate PDK1 or induce the phosphorylation

Molecule: CCCCC/C=C\C/C=C\C/C=C\C/C=C\CCCC(=O)OC(COC(=O)CCCCCCCCCCCCCCCCC)COP(=O)(O)OC1C(O)C(OP(=O)(O)O)C(OP(=O)(O)O)C(OP(=O)(O)O)C1O (single isomer, unassigned) [Lipid 4, L-enantiomer of sn-2-arachidonyl-3-stearoyl PtdIns(3,4,5)P3]
- activation of PDK1 (in words) (PDK1 [1]): no significant activation
- fold-activation of GST-PKBα (PDK1 activity) (PDK1 [1]; 3-stearoyl L-PtdIns(3,4,5)P3): 2.3 fold
- activation of PDK1 (in words) (PDK1 [1]; listed as L-enantiomer of sn-2-arachidonyl-3-stearoyl PtdIns(3,4,5)P3): almost ineffective

Molecule: CCCCC/C=C\C/C=C\CCCCCCCC(=O)OCC(COP(=O)(O)OC1C(O)C(OP(=O)(O)O)C(OP(=O)(O)O)C(OP(=O)(O)O)C1O)OC(=O)CCCCCCC/C=C\C/C=C\CCCCC (racemic) [Lipid 5, Racemic sn-1,2-dilinoleoyl PtdIns(3,4,5)P3]
- fold-activation of GST-PKBα (PDK1 activity) (PDK1 [1]): 36 fold
- order of level of activation of the 3-phosphoinositide-dependent kinase (most effective first) (PDK1 [1]): 1

Molecule: CCCCC/C=C\C/C=C\C/C=C\C/C=C\CCCC(=O)OC(COC(=O)CCCCCCCCCCCCCCCCC)COP(=O)(O)OC1C(O)C(OP(=O)(O)O)C(OP(=O)(O)O)C(OP(=O)(O)O)C1O (single isomer, unassigned) [Lipid 3, D-enantiomer of sn-2-arachidonyl-3-stearoyl PtdIns(3,4,5)P3]
- fold-activation of GST-PKBα (PDK1 activity) (PDK1 [1]; 3-stearoyl D-PtdIns(3,4,5)P3): 16 fold
- activation of PDK1 (in words) (PDK1 [1]; listed as D-enantiomer of sn-2-arachidonyl-3-stearoyl PtdIns(3,4,5)P3): potently activated PDK1
- order of level of activation of the 3-phosphoinositide-dependent kinase (most effective first) (PDK1 [1]): 2

Molecule: Triton X-100
- activation and phosphorylation of GST-PKBα by PDK1 in the presence of Triton X-100 (PDK1 [1]; listed as Triton X100): completely inhibits
- activation and phosphorylation of GST-PKBα by PDK1 in the presence of Triton X-100 (PDK1 [1]; listed as Triton-X100): prevented

Molecule: CCCCCCCCCCCCCCCC(=O)OCC(COP(=O)(O)OC1C(O)C(OP(=O)(O)O)C(OP(=O)(O)O)C(OP(=O)(O)O)C1O)OC(=O)CCCCCCCCCCCCCCC (centres unmarked) [Lipid 6, sn-1,2 di-palmitoyl PtdIns(3,4,5)P3]
- fold less effective in activating PDK1 than the sn-1-stearoyl-2-arachidonyl and sn-2-arachidonyl-3-stearoyl derivatives (PDK1 [1]): ~3 fold
- fold-activation of GST-PKBα (PDK1 activity) (PDK1 [1]): about 6 fold
- fold-activation of GST-PKBα (PDK1 activity) (PDK1 [1]; listed as sn-1,2-dipalmitoyl D-PtdIns(3,4,5)P3): 5.5 fold
- order of level of activation of the 3-phosphoinositide-dependent kinase (most effective first) (PDK1 [1]): 4

B1: GST-D223A-PDK1: catalytically inactive GST-PDK1 mutant in which Asp223 was changed to Ala (protein, UniProt O15530 1-556, looked up, variant D223A)
3-phosphoinositide-dependent …: MARTTSQLYDAVPIQSSVVLCSCPSPSMVRTQTESSTPPGIPGGSRQGPAMDGTAAEPRPGAGSLQHAQPPPQPRKKRPEDFKFGKILGEGSFSTVVLARELATSREYAIKILEKRHIIKENKVPYVTRERDVMSRLDHPFFVKLYFTFQDDEKLYFGLSYAKNGELLKYIRKIGSFDETCTRFYTAEIVSALEYLHGKGIIHRDLKPENILLNEDMHIQITAFGTAKVLSPESKQARANSFVGTAQYVSPELLTEKSACKSSDLWALGCIIYQLVAGLPPFRAGNEYLIFQKIIKLEYDFPEKFFPKARDLVEKLLVLDATKRLGCEEMEGYGPLKAHPFFESVTWENLHQQTPPKLTAYLPAMSEDDEDCYGNYDNLLSQFGCMQVSSSSSSHSLSASDTGLPQRSGSNIEQYIHDLDSNSFELDLQFSEDEKRLLLEKQAGGNPWHQFVENNLILKMGPVDKRKGLFARRRQLLLTEGPHLYYVDPVNKVLKGEIPWSQELRPEAKNFKTFFVHTPNRTYYLMDPSGNAHKWCRKIQEVWRQRYQSHPDAAVQ
modifications: GST fusion tag
- phosphorylation and activation of GST-PKBα (in words) (GST-PKBα; PtdCho/PtdSer lipid vesicles containing PtdIns(3,4,5)P3): did not phosphorylate or active GST-PKBα

B2: GST-DSTPK61: residues 1-752 of Drosophila DSTPK61 expressed in E. coli as GST fusion (protein)
chain: MKCKSWSNKINNYVVRKIKSIKINGTQQQLQLPGSGASGIAAAAVITVASDCGENCSSNGTEHQQHFNIATTTATSATEATMPAMAKEKASATVSLGESNFRDINLKDLAVVVEAASRLHHQQNVCGCGAVSSTENNNNSRYGSSKYLTNGHTSPLAAAVASNSSSVATTPHCRMLHNCSLQQYQNDIRQQTEILDMLRQQHQQGYQSQQQQQQPQQQQEQQQQQEQSQQQQQLQNPAPRRSPNDFIFGRYIGEGSYSIVYLAVDIHSRREYAIKVCEKRLILRERKQDYIKREREVMHQMTNVPGFVNLSCTFQDQRSLYFVMTYARKGDMLPYINRVGSFDVACTRHYAAELLLACEHMHRRNVVHRDLKPENILLDEDMHTLIADFGSAKVMTAHERALATEHCSEQRRSNSDEDDEDSDRLENEDEDFYDRDSEELDDGDDEQQQEEMDSPRHRQRRYNRHRKASFVGTAQYVSPEVLQNGPITPAADLWALGCIVYQMIAGLPPFRGSNDYVIFKEILDCAVDFPQGFDKDAEDLVRKLLRVDPRDRLGAQDEFGYYESIRAHPFFAGIDWQTLRQQTPPPIYPYLPGVSQDEDFRSSYTVPGDLEPGLDERQISRLLSAELGVGSSVAMPVKRSTAKNSFDLNDAEKLQRLEQQKTDKWHVFADGEVILKKGFVNKRKGLFARKRMLLLTTGPRLIYIDPVQMIKKGEIPWSPDLRAEYKNFKIFFVHTPNRTYYLDDPEGYAIHW
modifications: left off: a dimerising Fc or GST
notes: residues 1-752 of Drosophila DSTPK61 expressed in E. coli as GST fusion
- phosphorylation of GST-PKBα (GST-PKBα): 0.75 mol phosphate per mol protein
- specific activity towards GST-PKBα (GST-PKBα): 280 U/mg
- fold increase in GST-PKBα activity (GST-PKBα): 35 fold

B3: GST-ΔPH-PDK1: PDK1 mutant lacking the putative C-terminal PH domain, residues 1-450, GST fusion (protein, UniProt O15530 1-450, looked up, fragment)
chain: MARTTSQLYDAVPIQSSVVLCSCPSPSMVRTQTESSTPPGIPGGSRQGPAMDGTAAEPRPGAGSLQHAQPPPQPRKKRPEDFKFGKILGEGSFSTVVLARELATSREYAIKILEKRHIIKENKVPYVTRERDVMSRLDHPFFVKLYFTFQDDEKLYFGLSYAKNGELLKYIRKIGSFDETCTRFYTAEIVSALEYLHGKGIIHRDLKPENILLNEDMHIQITDFGTAKVLSPESKQARANSFVGTAQYVSPELLTEKSACKSSDLWALGCIIYQLVAGLPPFRAGNEYLIFQKIIKLEYDFPEKFFPKARDLVEKLLVLDATKRLGCEEMEGYGPLKAHPFFESVTWENLHQQTPPKLTAYLPAMSEDDEDCYGNYDNLLSQFGCMQVSSSSSSHSLSASDTGLPQRSGSNIEQYIHDLDSNSFELDLQFSEDEKRLLLEKQAGGNPWHQ
modifications: GST fusion tag
notes: PDK1 mutant lacking the putative C-terminal PH domain, residues 1-450, GST fusion
- fold reduction of the rate of activation of GST-PKBα compared to full length wild-type GST-PDK1 (GST-PKBα; PtdIns(3,4,5)P3 present): about 30 fold
